# Laboratory results from patent US20210386752A1, “Uses of Electron Transport Chain Complex I or Complex II Inhibitors in Treating Cancer, Combination Therapies, and Diagnostic Methods Related Thereto” (Emory University, priority 2020, published 2021).
# How the values were obtained:
# BIM binding to BCL-2 = experiment: Coimmunoprecipitation of BCL-2 and bound BIM; format: cell-based; conditions: TTFA-treated KMS11 cells
# Description: The regulation of ATF4, BIM and NOXA in MM cells that were not sensitized by TTFA treatment were investigated. Whole-cell lysates were evaluated for total protein expression. Coimmunoprecipitations was performed to examine binding of BIM with antiapoptotic BCL-2 in KMS11 and the TTFA insensitive-t(11;14) KMS21BM cells. Induction of BIM and NOXA were observed upon TTFA treatment (FIG. 5J) only in KMS11 not in the TTFA insensitive-t(11;14) KMS21BM cells.
# [1] = target: T1, succinate ubiquinone reductase (SQR) activity of Complex II (Homo sapiens, UniProt O14521+Q99643); experiment: SQR activity assay in permeabilized cells; format: biochemical; conditions: TTFA-treated KMS11 cells, 24 h
# T1 construct: endogenous in cells; host or cells: KMS11 multiple myeloma cells, permeabilized
# Excerpt: (§1) Given reduced oxygen consumption rates (OCR) in sensitive cells, the activities of mitochondrial Complex I and II were examined. Mitochondrial Complex I and II receive electrons from the electron donors NADH or FADH2 respectively, that are transferred to the terminal electron acceptor (O2) via a series of redox reactions. Complex I or NADH:Coenzyme Q:oxidoreductase is the largest multimeric respiratory complex of ETC comprised of over 40 subunits with its catalytic subunit containing the NADH binding site. Electrons from NADH are transferred to FMN and then to FeS clusters and finally to ubiquinone where ubiquinone is reduced to ubiquinol. […] Complex I activity was measured using an assay that relies on immunocapture of Complex I from freshly prepared cellular protein extracts. The NADH dehydrogenase activity of immunocaptured Complex I was determined by the oxidation of NADH and simultaneous reduction of the provided dye resulting in increase in absorbance. SDH and SQR activities were measured in live permeabilized cells, containing intact mitochondria pretreated with inhibitors of Complex I (rotenone), Complex III (antimycin) and Complex IV (sodium azide), allowing for selective measurement of SQR or SDH activity. […]
# Succinate ubiquinone reductase (SQR) and succinate dehydrogenase (SDH) activity assays were performed by absorbance-based assays using different electron acceptors. […]
# [2] = target: T2, succinate dehydrogenase (SDH) (Homo sapiens, UniProt P31040); experiment: SDH activity assay in permeabilized cells; format: biochemical; conditions: TTFA-treated KMS11 cells
# T2 construct: endogenous in cells; host or cells: KMS11 multiple myeloma cells, permeabilized
# Excerpt: as §1, with “ubiquinol. Complex II is the only enzyme that has a direct role both in the TCA cycle and ETC.” for “ubiquinol.”
# T1 sequence (Q99643 30-169): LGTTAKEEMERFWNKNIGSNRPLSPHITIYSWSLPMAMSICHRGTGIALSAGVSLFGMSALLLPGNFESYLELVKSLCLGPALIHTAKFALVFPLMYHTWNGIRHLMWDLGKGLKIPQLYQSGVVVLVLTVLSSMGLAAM
# T1 sequence (O14521 57-159): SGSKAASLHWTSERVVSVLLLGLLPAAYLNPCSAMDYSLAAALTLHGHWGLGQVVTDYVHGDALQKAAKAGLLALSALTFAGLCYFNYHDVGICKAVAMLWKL
# T1 sequence (P31040 43-664 partner): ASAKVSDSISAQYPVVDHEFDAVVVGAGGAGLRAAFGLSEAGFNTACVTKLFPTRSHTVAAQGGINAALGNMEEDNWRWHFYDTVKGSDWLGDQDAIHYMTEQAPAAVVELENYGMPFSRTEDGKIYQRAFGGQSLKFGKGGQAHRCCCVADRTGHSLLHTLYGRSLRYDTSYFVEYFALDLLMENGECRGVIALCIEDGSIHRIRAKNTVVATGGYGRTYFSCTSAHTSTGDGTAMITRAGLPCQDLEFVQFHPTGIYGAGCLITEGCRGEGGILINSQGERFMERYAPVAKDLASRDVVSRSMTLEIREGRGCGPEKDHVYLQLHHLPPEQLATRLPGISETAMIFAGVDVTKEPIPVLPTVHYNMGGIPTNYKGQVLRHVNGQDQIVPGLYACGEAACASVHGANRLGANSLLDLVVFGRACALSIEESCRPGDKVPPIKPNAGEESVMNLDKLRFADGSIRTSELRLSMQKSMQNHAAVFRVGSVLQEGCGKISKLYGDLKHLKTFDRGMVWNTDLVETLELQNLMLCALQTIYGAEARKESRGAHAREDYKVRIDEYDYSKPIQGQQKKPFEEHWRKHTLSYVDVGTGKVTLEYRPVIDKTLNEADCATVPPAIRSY
# T1 sequence (P21912 29-280 partner): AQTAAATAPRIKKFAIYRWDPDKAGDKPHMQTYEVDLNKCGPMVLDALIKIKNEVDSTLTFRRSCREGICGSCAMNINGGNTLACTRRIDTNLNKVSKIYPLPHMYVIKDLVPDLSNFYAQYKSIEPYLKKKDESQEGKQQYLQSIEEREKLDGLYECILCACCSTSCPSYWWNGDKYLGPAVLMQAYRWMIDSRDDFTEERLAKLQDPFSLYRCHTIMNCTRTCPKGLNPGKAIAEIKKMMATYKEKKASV
# T2 sequence (P31040 43-664): as the sequence (P31040 43-664 partner) above
# T2 sequence (P21912 29-280 partner): as the sequence (P21912 29-280 partner) above
# T2 sequence (Q99643 30-169 partner): as the sequence (Q99643 30-169) above
# T2 sequence (O14521 57-159 partner): as the sequence (O14521 57-159) above
smiles,measurement,setting,value
"O=C(CC(=O)C(F)(F)F)c1cccs1 [TTFA, 4,4,4-trifluoro-1-(2-thienyl)-1,3-butanedione]",BIM binding to BCL-2,BIM binding to BCL-2,elevated BIM binding to BCL-2
same,SQR activity,[1],Significant reduction in SQR activity
same,SDH activity,[2],remained unaffected
